# Assays:
# plasma cholesterol level = assay: Cholesterol-lowering activity in rats (modified Greenberg method); format: in vivo, rat; details: 100 mg/Kg oral once a day, 5 consecutive days
# Method: The effect of each of the test compounds on the plasma cholesterol level was examined in rats according to a slightly modified form of the C. M. Greenberg et al. method described in Am. J. Physiol., Vol. 202 (1961), p. 732. Rats were treated once a day with a 100 mg/Kg oral dose for 5 consecutive days instead of 7 days.
# High renin plasma = molecular target: T1, High renin plasma (Canis lupus familiaris, UniProt Q6DYE7); assay: Renin-inhibitory activity, Method II (high renin plasma of dog, inhibition of Angiotensin I formation); format: biochemical; details: Table 2; 37°C, 4 hours, 1.25 mg/ml; read-out: Rate of inhibiting the formation of Angiotensin I determined by Method II
# T1 construct: High renin plasma prepared by constriction of the renal artery of a dog anesthetized with Nembutal; from tissue; host or cells: plasma of a dog with constricted renal artery
# T1 sequence (Q6DYE7 66-403): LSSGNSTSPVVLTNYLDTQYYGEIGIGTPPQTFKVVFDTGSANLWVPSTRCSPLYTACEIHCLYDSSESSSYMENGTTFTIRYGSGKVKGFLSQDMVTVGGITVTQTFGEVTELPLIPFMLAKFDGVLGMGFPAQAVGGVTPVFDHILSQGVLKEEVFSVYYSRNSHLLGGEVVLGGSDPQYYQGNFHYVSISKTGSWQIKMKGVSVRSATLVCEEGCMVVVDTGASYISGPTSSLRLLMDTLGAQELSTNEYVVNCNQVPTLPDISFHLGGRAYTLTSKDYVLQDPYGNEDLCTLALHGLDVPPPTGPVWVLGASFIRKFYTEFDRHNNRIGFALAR
# renal hypertensive rats [1] = assay: Antihypertensive activity in renal hypertensive rats, i.m. (Table 3); format: in vivo, rat; details: 30 mg/kg/day i.m.
# renal hypertensive rats [2] = assay: Antihypertensive activity in rats, p.o. (Table 4); format: in vivo, rat; details: 100 mg/kg/day p.o.
# Renin = molecular target: T2, Renin (Homo sapiens, UniProt P00797); assay: Renin-inhibitory activity, Method I (inhibition of Angiotensin I formation, RIA); format: biochemical; details: Table 2; 37°C, 4 hours, 1.25 mg/ml; read-out: Rate of inhibiting the formation of Angiotensin I determined by Method I
# T2 sequence (P00797 67-406): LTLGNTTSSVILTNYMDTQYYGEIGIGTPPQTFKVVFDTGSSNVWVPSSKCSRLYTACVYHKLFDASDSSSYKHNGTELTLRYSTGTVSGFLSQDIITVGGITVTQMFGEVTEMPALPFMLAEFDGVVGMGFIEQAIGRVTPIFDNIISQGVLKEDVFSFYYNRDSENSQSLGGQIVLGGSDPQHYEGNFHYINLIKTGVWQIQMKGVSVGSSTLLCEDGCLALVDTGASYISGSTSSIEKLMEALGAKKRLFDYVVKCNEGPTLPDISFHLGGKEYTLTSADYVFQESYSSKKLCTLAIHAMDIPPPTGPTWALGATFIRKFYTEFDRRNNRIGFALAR
# [3] = 1st day, 0 h (immediately before administration)
# [4] = 1st day, 5 hours after administration
# [5] = 2nd day, 5 hours after administration
# [6] = 3rd day, 0 h (immediately before administration)
# [7] = 3rd day, 5 hours after administration
# [8] = 4th day, 0 h (immediately before administration)
# [9] = 5th day, 0 h (immediately before administration)
# [10] = 5th day, 5 hours after administration
# [11] = 6th day, 0 h (immediately before administration)
compound,measurement,setting,value
"CCCCCC=CCC=CCC=CCC=CCCCC(=O)OCC(COP(=O)(O)OCCN)OC(=O)CCCCCCCCCCCCCCCCC (racemic) [(a), rac-2-Octadecanoyl-3-(eicosa-5,8,11,14-tetraenoyl)glycero-1-phosphoryl ethanolamine, reference compound]",Cholesterol-lowering activity,plasma cholesterol level,0%
same,inhibition at 1250 µg/mL,High renin plasma,25%
same,Changes of blood pressure after drug withdrawal,renal hypertensive rats [1]; 1st day after withdrawal,-14 mmHg
same,Changes of blood pressure,renal hypertensive rats [1]; [3],0 mmHg
same,Changes of blood pressure,renal hypertensive rats [1]; [4],-26 mmHg
same,Changes of blood pressure after drug withdrawal,renal hypertensive rats [1]; 2nd day after withdrawal,-3 mmHg
same,Changes of blood pressure,renal hypertensive rats [1]; [5],-35 mmHg
same,Changes of blood pressure after drug withdrawal,renal hypertensive rats [1]; 3rd day after withdrawal,-1 mmHg
same,Changes of blood pressure,renal hypertensive rats [1]; [6],-5 mmHg
same,Changes of blood pressure,renal hypertensive rats [1]; [7],-29 mmHg
same,Changes of blood pressure,renal hypertensive rats [1]; [8],-5 mmHg
same,Changes of blood pressure,"renal hypertensive rats [1]; 4th day, 5 hours after administration",-34 mmHg
same,Changes of blood pressure,renal hypertensive rats [1]; [9],-13 mmHg
same,Changes of blood pressure,renal hypertensive rats [1]; [10],-33 mmHg
same,Changes of blood pressure,renal hypertensive rats [1]; [11],-13 mmHg
same,Changes of blood pressure,"renal hypertensive rats [1]; 6th day, 5 hours after administration",-43 mmHg
same,"antihypertensive effect, oral administration (in words)",renal hypertensive rats [2],did not show such an effect
same,Changes of blood pressure,renal hypertensive rats [2]; [3],0 mmHg
same,Changes of blood pressure,renal hypertensive rats [2]; [4],+2 mmHg
same,Changes of blood pressure,"renal hypertensive rats [2]; 2nd day, 0 h (immediately before administration)",+1 mmHg
same,Changes of blood pressure,renal hypertensive rats [2]; [5],+5 mmHg
same,Changes of blood pressure,renal hypertensive rats [2]; [6],+2 mmHg
same,Changes of blood pressure,renal hypertensive rats [2]; [7],-2 mmHg
same,Changes of blood pressure,renal hypertensive rats [2]; [8],+1 mmHg
same,Changes of blood pressure,renal hypertensive rats [2]; [9],+2 mmHg
same,Changes of blood pressure,renal hypertensive rats [2]; [10],+2 mmHg
same,Changes of blood pressure,renal hypertensive rats [2]; [11],+1 mmHg
same,Changes of blood pressure,"renal hypertensive rats [2]; 7th day, 0 h (immediately before administration)",+1 mmHg
same,Changes of blood pressure,"renal hypertensive rats [2]; 7th day, 5 hours after administration",+2 mmHg
same,inhibition at 1250 µg/mL,Renin,< 10%

# Source: patent US3985875A, “ω-(N-acylamino)alkylphosphoryl ethanolamines, pharmaceutical compositions containing them, and their uses” (Dainippon Pharmaceutical Co., Ltd., priority 1974, dated 1976)
